The nature of data set [1]: Polymorphic stability on storage, checked by XRPD. The settings on record: stored 3 months in self-sealing polyethylene bag, normal atmospheric conditions, room temperature. The data set is classed as physicochemical. The method, then:
The process of the present invention provides stable co-crystals of aripiprazole with fumaric acid. The term “stable crystalline form” refers to stability of the crystalline form under the standard temperature and humidity conditions of testing of pharmaceutical products, wherein the stability is indicated by preservation of the original polymorphic form.
Aripiprazole was prepared according to the process given in Example 2 and was packaged in a self-sealing polyethylene bag. The material was stored for 3 months under normal atmospheric conditions at room temperature and checked for polymorphic stability.

The conditions of data set [2]: cited from earlier work.

Consider two compounds from patent US20090054455A1, “ARIPIPRAZOLE CO-CRYSTALS” (DR. REDDY'S LABORATORIES LTD., priority 2006, published 2009).

As for `O=C(O)C=CC(=O)O.O=C1CCc2ccc(OCCCCN3CCN(c4cccc(Cl)c4Cl)CC3)cc2N1.O=C1CCc2ccc(OCCCCN3CCN(c4cccc(Cl)c4Cl)CC3)cc2N1` [Example 2], in data set [1], the “polymorphic stability (maintenance of the original XRPD pattern)” value is reported as “retain its polymorphic form”. As for `O=C1CCc2ccc(OCCCCN3CCN(c4cccc(Cl)c4Cl)CC3)cc2N1` [aripiprazole, 7-[4-[4-(2,3-dichlorophenyl)-1-piperazinyl]butoxy]-3,4-dihydrocarbostyril], the “solubility in aqueous media” value in data set [2] is on record as “practically insoluble”.
